Here are results for 55 molecules from the OPERA property sets (Mansouri et al. 2018).

As to `C[C@@H]1O[C@@H](O[C@H]2CC[C@]3(C=O)[C@H]4CC[C@]5(C)[C@@H](c6ccc(=O)oc6)CC[C@]5(O)[C@@H]4CC[C@]3(O)C2)[C@H](O)[C@H](O)[C@H]1O[C@@H]1O[C@H](CO)[C@@H](O)[C@H](O)[C@H]1O`, the melting point (usually the temperature, or range, at which the solid turns liquid) amounted to 284 °C.

Turning to `O=[N+]([O-])c1ccccc1O`, the boiling point (commonly the temperature at which the vapour pressure of the liquid equals the pressure above it) was 216 °C, the log10 Henry constant (atm·m³/mol) was -4.89, the log10 vapour pressure (mmHg) is -0.947 and the melting point turned out to be 44.8 °C. For the same molecule, the ready biodegradability entry is “not readily biodegradable”.

Consider `CCOC(=O)C(C)C(=O)OCC`, for which the boiling point was found to be 201 °C.

Consider `O=CC=Cc1ccc([N+](=O)[O-])cc1`, for which the melting point amounted to 142 °C.

`CCCCCCCCC(Br)C(=O)O` (stereo unspecified) had a melting point of 4 °C.

On to `FC(F)(F)C(F)(Cl)C(Cl)(Cl)C(F)(F)F` (stereo unspecified), for which the boiling point is 98 °C and the melting point was 4 °C.

On to `Cc1nn(C)c(Oc2ccccc2)c1C=NOCc1ccc(C(=O)OC(C)(C)C)cc1`, for which the melting point was determined as 102 °C.

On to `C[Si]1(C)O[Si](C)(C)O[Si](C)(C)O1`, for which the boiling point stood at 134 °C, the log10 vapour pressure (mmHg) stood at 0.548 and the melting point was found to be 64.5 °C.

As to `CCCCCCCCCCCC(=O)OCCOC(=O)CCCCCCCCCCC`, the melting point turned out to be 56.6 °C.

In the case of `Cc1cccc(Nc2ccccc2C(=O)O)c1C`, the melting point turned out to be 230 °C.

As to `NS(=O)(=O)c1cc2c(s1)SCCC2=O`, the melting point was 222 °C.

As for `CCOC(=O)C(C)O` (stereo unspecified), the boiling point stood at 154 °C and the log10 vapour pressure (mmHg) amounted to 0.574.

Molecule `CCCCSCCCC` displayed a boiling point of 185 °C, a log10 vapour pressure (mmHg) of 0.0792 and a melting point of -79.7 °C.

In turn, `CCCCCCCCCCC1CCCC1` had a boiling point of 279 °C and a melting point of -22 °C.

`O=S(=O)(O)C(F)(F)C(F)(F)C(F)(F)C(F)(F)F`: the boiling point came out at 211 °C.

As for `CCOC(=O)C1=C(C)NC(C)=C(C(=O)OCC)C1`, the melting point was 180 °C.

Consider `C#CCCCCCCCCCCCCCCCCCC`, for which the boiling point worked out at 340 °C and the melting point was determined as 36 °C.

On to `FC(F)(F)CS`, for which the boiling point turned out to be 34.5 °C.

For `COC(=O)C(F)(F)F`, the boiling point amounted to 43.2 °C.

The molecule `CCCCCCCCC(N)=O` had a melting point of 99.5 °C.

`CC(C)(C)c1cccc2ccccc12` yielded a boiling point of 279 °C and a melting point of -11.3 °C.

`C=CC(C)C(C)CC` (stereo unspecified) had a boiling point of 112 °C.

The molecule `c1cc2c(cc1O[C@H]1OC[C@H]3[C@@H]1CO[C@@H]3c1ccc3c(c1)OCO3)OCO2` displayed a melting point of 93.5 °C.

Turning to `Cc1ccc(S(N)(=O)=O)cc1`, the melting point amounted to 138 °C and the ready biodegradability result is listed as “not readily biodegradable”.

`CC(=O)OC1CCCCC1C(C)(C)C` (stereo unspecified) had a melting point of 35 °C.

For `CCC(C)OC(=O)CC(C)=O` (stereo unspecified), the ready biodegradability entry was “readily biodegradable”.

As to `CCCCCBr`, the boiling point was determined as 130 °C, the log10 vapour pressure (mmHg) was found to be 1.1, the melting point is -95 °C and the ready biodegradability result is “not readily biodegradable”.

Take `BrCC(Br)(Br)CBr`: the melting point was 10.5 °C.

With `CCOc1cccc(C=O)c1O`, the boiling point stood at 264 °C and the melting point is 67 °C.

For the molecule `CCC(C)(C)OC(N)=O`, the melting point is 86 °C.

As for `CC(=O)c1cc2c(cc1C)C(C)(C)C(C)CC2(C)C` (stereo unspecified), the melting point worked out at 54.5 °C.

Take `ClC(I)I`: the melting point was -4 °C.

`CCN1CCN(c2cc3c(cc2F)c(=O)c(C(=O)O)cn3C2CC2)CC1` yielded a melting point of 220 °C.

In turn, `CCN1CCCCC1` showed a boiling point of 131 °C.

As to `COc1cc2ccc(=O)oc2cc1OC`, the melting point is 146 °C.

On to `O=c1cccc2n1CC1CNCC2C1` (stereo unspecified), for which the melting point turned out to be 152 °C.

As for `CSc1ccc(N)cc1`, the boiling point came out at 272 °C.

`CC(Cl)(Cl)C(Cl)Cl` came in with a boiling point of 153 °C.

`FC(F)(F)C(Cl)(Cl)Cl` yielded a boiling point of 46.1 °C, a log10 vapour pressure (mmHg) of 2.56 and a melting point of 14.2 °C.

The molecule `Clc1c(Cl)c(Cl)c2c(c1Cl)Oc1ccccc1O2` displayed a log10 Henry constant (atm·m³/mol) of -4.7, a log10 Koa of 9.7, a log10 vapour pressure (mmHg) of -7.32 and a melting point of 188 °C.

`CCCCC(C)C` showed a boiling point of 90 °C, a log10 biodegradation half-life (days) of 0.477, a log10 vapour pressure (mmHg) of 1.82 and a melting point of -118 °C.

Turning to `CCOC(=O)C(=Cc1ccccc1)C(=O)OCC`, the melting point turned out to be 32 °C.

Regarding `CCCCCCCCCCCCCCCCCCCCO`, the boiling point is 372 °C, the log10 Koa was found to be 12.1, the log10 vapour pressure (mmHg) is -7.34 and the melting point came to 66.1 °C.

Molecule `CCCCCCCC(=O)OC(C)C` came in with a log10 vapour pressure (mmHg) of -0.963.

Molecule `CCC(C)C(O)C(C)CC` (stereo unspecified) returned a boiling point of 186 °C.

The molecule `FCCCCCCl` came in with a boiling point of 143 °C.

Molecule `CCCC(CC)C(C)CC` (stereo unspecified) yielded a boiling point of 165 °C.

On to `c1ccc2sc(SSc3nc4ccccc4s3)nc2c1`, for which the melting point is 180 °C and the ready biodegradability entry is listed as “not readily biodegradable”.

Turning to `CC(=O)C[C@H](C)O`, the boiling point was 177 °C.

For `CC1=Cc2ccccc2C1`, the boiling point amounted to 208 °C, the log10 biodegradation half-life (days) came to 0.477 and the melting point came out at 80 °C.

`C=CC(CC)CCC` (stereo unspecified) registered a boiling point of 110 °C.

With `CC(C)(C)NC(=O)COC(=O)c1ccccc1`, the melting point came out at 112 °C.

For `CCCCCc1cc(O)c2c(c1)OC(C)(C)c1ccc(C)cc1-2`, the melting point is 77 °C and the ready biodegradability result is “readily biodegradable”.

`CCOc1cc(Oc2ccc(C(F)(F)F)cc2Cl)ccc1[N+](=O)[O-]`: the boiling point was 358 °C, the log10 Koc (L/kg) was found to be 5, the log10 vapour pressure (mmHg) was -6.7 and the melting point came to 84 °C.

In turn, `CN(C)CCC#N` displayed a boiling point of 173 °C.
